Laboratory results from patent US20090226544A1, “Pharmaceutical Compound For Treating Inflammation, Pain, Arthritis And Spinitis, And Proliferating Osteoblastic Cell And Method For Producing Thereof” (priority 2005, published 2009).

Columns and labels:
Assay type in all cases: in vivo
SD male albino rats [1] = assay: Carrageenan-induced hind paw edema, Example 4 at 30-600 mg/kg (Experimental Example 4)
Description: (§1) SD male albino rats weighing 150 to 170 g, which were fasted for 16 hours before experimental use, were used as test animals to induce edema by subcutaneously injecting 0.1 ml of a 1% type IV lambda carrageenan-saline solution as a […] to the subplantar of the right hind paw of each of the albino rats (Winter et al., 1962). The paw volume was measured with a plethysmometer (Ugo Basile, Italy) 0.5, 1, 2, 4 and 6 hours after injection of carrageenan and compared with the paw volume measured before injection of carrageenan for calculation of an increase (%) of paw volume. In addition, an increase (%) of paw volume for a control group was compared with increases (%) of paw volume for treatment groups for obtaining a reduction ratio (%) of paw volume. The pharmaceutical compositions prepared in Examples 1 through 4 were orally administered to the […] 30 minutes before injection of carrageenan. The extent of paw edema (or swelling) was obtained based on the edema enhancement rate and edema inhibition rate measured using the following relationship. […] Phenylbutazone was used as a positive control. In order to examine the inhibitory effect of the pharmaceutical composition prepared in Example 4 of the present invention on acute inflammation induced by carrageenan, […] Experimental Example 1 and the results are summarized in Table 4.

SD male albino rats [2] = assay: Carrageenan-induced hind paw edema, Example 4 administered for 2 weeks (Experimental Example 5); settings: dose 5 mg/kg, 2-week test
Description: as §1, with “4. […]” for “4.”

SD male albino rats [3] = assay: as above; settings: dose 5 mg/kg; 2-week test; 2 h after carrageenan
SD male albino rats [4] = assay: Acute inflammation test by carrageenan-induced hind paw edema, composition given 30 minutes before carrageenan (Experimental Example 1); settings: dose 50 mg/kg oral
Description: (§2) SD male albino rats weighing 150 to 170 g, which were fasted for 16 hours before experimental use, were used as test animals to induce edema by subcutaneously injecting 0.1 ml of a 1% type IV lambda carrageenan-saline solution as a […] to the subplantar of the right hind paw of each of the albino rats (Winter et al., 1962). The paw volume was measured with a plethysmometer (Ugo Basile, Italy) 0.5, 1, 2, 4 and 6 hours after injection of carrageenan and compared with the paw volume measured before injection of carrageenan for calculation of an increase (%) of paw volume. In addition, an increase (%) of paw volume for a control group was compared with increases (%) of paw volume for treatment groups for obtaining a reduction ratio (%) of paw volume. […] The extent of paw edema (or swelling) was obtained based on the edema enhancement rate and edema inhibition rate measured using the following relationship.

SD male albino rats [5] = assay: Acute inflammation test by carrageenan-induced hind paw edema after 2 weeks of administration (Experimental Example 2); settings: dose 50 mg/kg, 2-week test
Description: as §2

ICR male mice = assay: Analgesic effect test, acetic acid-induced writhing (Experimental Example 3); settings: dose 50 mg/kg oral
Description: The pharmaceutical compositions prepared in Examples 1 through 4 were orally administered to ICR (Institute of Cancer Research) male mice weighing 25 to 28 g, which were fasted for 12 hours before experimental use. After 30 minutes of administration, 0.7% acetic acid-saline solution was intraperitoneally injected to the mice in a dose of […] per 10 g of body weight and from 5 minutes after administration, the number of writhings occurring to each mouse was counted for 10 minutes (Koster et al., 1959) and the results are summarized in Table 3. Phenylbutazone was used as a positive control.

SMILES | Increased percent of paw volume (%) (SD male albino rats [1]; 0.5 h after carrageenan) | reduction ratio (%) of paw volume vs control (SD male albino rats [1]; 0.5 h after carrageenan) [%] | Increased percent of paw volume (%) (SD male albino rats [1]; 1 h after carrageenan) | reduction ratio (%) of paw volume vs control (SD male albino rats [1]; 1 h after carrageenan) [%] | Increased percent of paw volume (%) (SD male albino rats [1]; 2 h after carrageenan) | reduction ratio (%) of paw volume vs control (SD male albino rats [1]; 2 h after carrageenan) [%] | Increased percent of paw volume (%) (SD male albino rats [1]; 4 h after carrageenan) | reduction ratio (%) of paw volume vs control (SD male albino rats [1]; 4 h after carrageenan) [%] | Increased percent of paw volume (%) (SD male albino rats [1]; 6 h after carrageenan) | reduction ratio (%) of paw volume vs control (SD male albino rats [1]; 6 h after carrageenan) [%] | Increased percent of paw volume (%) (SD male albino rats [2]; 0.5 h after carrageenan) | reduction ratio (%) of paw volume vs control (SD male albino rats [2]; 0.5 h after carrageenan) [%] | Increased percent of paw volume (%) (SD male albino rats [2]; 1 h after carrageenan) | reduction ratio (%) of paw volume vs control (SD male albino rats [2]; 1 h after carrageenan) [%] | reduction ratio (%) of paw volume vs control (SD male albino rats [2]; 2 h after carrageenan) [%] | Increased percent of paw volume (%) (SD male albino rats [2]; 4 h after carrageenan) | reduction ratio (%) of paw volume vs control (SD male albino rats [2]; 4 h after carrageenan) [%] | Increased percent of paw volume (%) (SD male albino rats [2]; 6 h after carrageenan) | reduction ratio (%) of paw volume vs control (SD male albino rats [2]; 6 h after carrageenan) [%] | Increased percent of paw volume (%) (SD male albino rats [3]) | further results
O=C(O)COC(=O)Cc1ccccc1Nc1c(Cl)cccc1Cl [Aceclofenac, aceclofenac] | 12.1 ± 2.6 | 34.8 | 12.1 ± 3.5 | 53.7 | 16.7 ± 3.0 | 58.7 | 36.9 ± 5.1 | 56.1 | 50.6 ± 3.9 | 31.5 | 10.1 ± 1.4 | 62.6 | 15.1 ± 1.7 | 51.4 | 59.2 | 55.3 ± 3.9 | 29.4 | 61.0 ± 3.5 | 19.4 | 19.7 ± 2.0 | –
O=C(O)Cc1ccccc1Nc1c(Cl)cccc1Cl [Diclofenac, diclofenac] | 9.6 ± 1.6 | 47.5 | 13.6 ± 2.6 | 48.0 | 17.7 ± 3.1 | 56.3 | 37.24 ± 5.9 | 55.7 | 34.89 ± 2.8 | 52.8 | 12.0 ± 1.8 | 55.5 | 13.7 ± 1.4 | 55.6 | 54.4 | 49.2 ± 3.9 | 37.1 | 51.8 ± 4.0 | 31.50 | 22.0 ± 2.0 | –
CCCCC1C(=O)N(c2ccccc2)N(c2ccccc2)C1=O [Phenylbutazone, phenylbutazone] | – | – | – | – | – | – | – | – | – | – | – | – | – | – | – | – | – | – | – | – | Increased percent of paw volume (%) (SD male albino rats [4]; 1 h after carrageenan): 14.0 ± 0.9 %; Increased percent of paw volume (%) (SD male albino rats [4]; 2 h after carrageenan): 25.0 ± 3.7 %; Increased percent of paw volume (%) (SD male albino rats [4]; 4 h after carrageenan): 37.8 ± 4.3%; Increased percent of paw volume (%) (SD male albino rats [4]; 6 h after carrageenan): 35.0 ± 2.4 %; Increased percent of paw volume (%) (SD male albino rats [5]; 1 h after carrageenan): 13.2 ± 0.8 %; Increased percent of paw volume (%) (SD male albino rats [5]; 2 h after carrageenan): 19.3 ± 2.4 %; Increased percent of paw volume (%) (SD male albino rats [5]; 4 h after carrageenan): 39.1 ± 5.0 %; Increased percent of paw volume (%) (SD male albino rats [5]; 6 h after carrageenan): 35.0 ± 2.4 %; Number of writhing (ICR male mice; counted for 10 minutes): 12.3 ± 0.9; Inhibition rate (%) (ICR male mice; writhing): 50.1%
